Molecular target: T1, STAT3 (Homo sapiens, UniProt P40763)
T1 construct: expressed in transfected cells; host or cells: A549
Test: STAT3 HiBiT degradation assay (Nano-Glo HiBiT lytic detection) in transfected A549 cells
Type: cell-based
Conditions: 24 h compound incubation, read-out: STAT3 HiBIT A549 degradation 24 h: Average external-Abs DC50
Procedure, shortened: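 Transfected A549 cells (~2000/well) treated 24 h at 37° C with compound in 3-fold, 10-point dilution series. HiBiT-tagged STAT3 remaining measured by Nano-Glo HiBiT lytic luminescence, normalised to negative and positive controls; DC50 from four-parameter curve fit.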

T1 sequence (P40763 whole entry): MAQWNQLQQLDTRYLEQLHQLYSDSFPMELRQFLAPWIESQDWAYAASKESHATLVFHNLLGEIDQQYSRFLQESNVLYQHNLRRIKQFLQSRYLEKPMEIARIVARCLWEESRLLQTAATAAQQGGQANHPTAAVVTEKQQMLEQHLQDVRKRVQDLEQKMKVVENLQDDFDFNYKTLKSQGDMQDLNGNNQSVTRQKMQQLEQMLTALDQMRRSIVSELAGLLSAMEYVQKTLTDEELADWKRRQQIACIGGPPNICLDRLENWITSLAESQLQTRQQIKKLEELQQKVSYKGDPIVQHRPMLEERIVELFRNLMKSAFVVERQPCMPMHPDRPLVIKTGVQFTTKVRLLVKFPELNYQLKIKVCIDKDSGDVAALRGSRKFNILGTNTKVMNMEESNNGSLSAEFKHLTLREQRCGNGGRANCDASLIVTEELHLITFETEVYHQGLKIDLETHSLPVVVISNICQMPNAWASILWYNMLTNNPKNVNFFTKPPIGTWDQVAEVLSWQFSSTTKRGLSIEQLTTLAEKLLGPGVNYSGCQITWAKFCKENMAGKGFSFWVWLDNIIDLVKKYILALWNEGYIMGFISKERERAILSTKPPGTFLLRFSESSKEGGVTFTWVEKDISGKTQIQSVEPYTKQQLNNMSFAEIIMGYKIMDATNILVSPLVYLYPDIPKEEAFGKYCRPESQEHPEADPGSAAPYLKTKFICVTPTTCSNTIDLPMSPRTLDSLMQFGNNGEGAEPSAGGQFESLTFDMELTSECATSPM

Compared with `Cc1ncsc1-c1ccc([C@H](C)NC(=O)[C@@H]2C[C@@H](O)CN2C(=O)[C@@H](NC(=O)CCCc2cccc(OC[C@H](CCC(N)=O)NC(=O)[C@@H]3CC[C@@H]4CCN(C(=O)C(F)(F)F)C[C@H](NC(=O)c5cc6cc(C(=O)P(=O)(O)O)ccc6[nH]5)C(=O)N43)c2Cl)C(C)(C)C)cc1` [I-66], `COC(=O)N1CC[C@H]2CC[C@@H](C(=O)N[C@@H](CCC(N)=O)COc3cccc(CCCC(=O)N[C@H](C(=O)N4C[C@H](O)C[C@H]4C(=O)N[C@@H](C)c4ccc(-c5scnc5C)cc4)C(C)(C)C)c3Cl)N2C(=O)[C@@H](NC(=O)c2cc3cc(C(=O)P(=O)(O)O)ccc3[nH]2)C1` [I-87] is higher in DC50: < 10 nM for the first, > 1000 nM for the second.

First: Cn1c(=O)n(C2CCC(=O)NC2=O)c2ccc(C[C@H]3CC[C@@H](CC(=O)N4CC[C@H]5CC[C@@H](C(=O)N[C@@H](CCC(N)=O)COc6ccc(S(C)(=O)=O)cc6)N5C(=O)[C@@H](NC(=O)c5cc6cc(C(=O)P(=O)(O)O)ccc6[nH]5)C4)CC3)cc21 (stereo partly shown) [I-67]
Second: Cn1c(=O)n(C2CCC(=O)NC2=O)c2ccc(C[C@H]3CC[C@H](CC(=O)N4CC[C@H]5CC[C@@H](C(=O)N[C@@H](CCC(N)=O)C(=O)NCc6ccc(S(C)(=O)=O)cc6)N5C(=O)[C@@H](NC(=O)c5cc6cc(C(=O)P(=O)(O)O)ccc6[nH]5)C4)CC3)cc21 (stereo partly shown) [I-74]
The DC50 of the first is higher: 100 to 1000 nM for the first, 10 to 100 nM for the second.

`Cn1c(=O)n(C2CCC(=O)NC2=O)c2ccc(CC[C@H]3CC[C@@H](C(=O)N4CC[C@H]5CC[C@@H](C(=O)N[C@@H](CCC(N)=O)C(=O)NCc6ccc(S(C)(=O)=O)cc6)N5C(=O)[C@@H](NC(=O)c5cc6cc(C(=O)P(=O)(O)O)ccc6[nH]5)C4)CC3)cc21` (stereo partly drawn) [I-68, 2-[[(5S,8S,10aR)-8-[[(1S)-3-carbamoyl-1-[[(4-methanesulfonylphenyl)methyl]carbamoyl]propyl]carbamoyl]-6-oxo-3-[(1r,4s)-4-[2-[1-(2,6-dioxopiperidin-3-yl)-3-methyl-2-oxo-1,3-benzodiazol-5-yl]ethyl]cyclohexanecarbonyl]-octahydropyrrolo[1,2-a][1,5]diazocin-5-yl]carbamoyl]-1H-indole-5-carbonylphosphonic acid] and `Cn1c(=O)n(C2CCC(=O)NC2=O)c2ccc(CC[C@H]3CC[C@H](C(=O)N4CC[C@H]5CC[C@@H](C(=O)N[C@@H](CCC(N)=O)C(=O)NCc6ccc(S(C)(=O)=O)cc6)N5C(=O)[C@@H](NC(=O)c5cc6cc(C(=O)P(=O)(O)O)ccc6[nH]5)C4)CC3)cc21` (stereo partly shown) [I-73] fall in the same range of DC50: 10 to 100 nM for the first, 10 to 100 nM for the second.

Compared with `CC(=O)N1CC[C@H]2CC[C@@H](C(=O)N[C@@H](CCC(N)=O)COc3cccc(CCCOc4cc([C@H](C(=O)N5C[C@H](O)C[C@H]5C(=O)NCc5ccc(-c6scnc6C)cc5)C(C)C)on4)c3Cl)N2C(=O)[C@@H](NC(=O)c2cc3cc(C(=O)P(=O)(O)O)ccc3[nH]2)C1` [I-69], `CC(=O)N1CC[C@H]2CC[C@@H](C(=O)N[C@@H](CCC(N)=O)COc3cccc(CCCC(=O)N[C@H](C(=O)N4C[C@H](O)C[C@H]4C(=O)NC4(c5ccc(-c6scnc6C)cc5)CC4)C(C)(C)C)c3Cl)N2C(=O)[C@@H](NC(=O)c2cc3cc(C(=O)P(=O)(O)O)ccc3[nH]2)C1` [I-72] is higher in DC50: < 10 nM for the first, 10 to 100 nM for the second.

First: CC(C)S(=O)(=O)c1ccc(CNC(=O)[C@H](CCC(N)=O)NC(=O)[C@@H]2CC[C@@H]3CCN(C(=O)C[C@H]4CC[C@@H](Cc5ccc6c(c5)n(C)c(=O)n6C5CCC(=O)NC5=O)CC4)C[C@H](NC(=O)c4cc5cc(C(=O)P(=O)(O)O)ccc5[nH]4)C(=O)N32)cc1 (stereo partly shown) [I-70]
Second: Cn1c(=O)n(C2CCC(=O)NC2=O)c2ccc(C[C@H]3CC[C@@H](CC(=O)N4CC[C@H]5CC[C@@H](C(=O)N[C@@H](CCC(N)=O)C(=O)NCc6ccc(S(C)(=O)=O)cc6)N5C(=O)[C@@H](NC(=O)c5cc6cc(C(=O)O)ccc6[nH]5)C4)CC3)cc21 (stereo partly drawn) [I-75, 2-[[(5S,8S,10aR)-8-[[(1S)-3-carbamoyl-1-[[(4-methanesulfonylphenyl)methyl]carbamoyl]propyl]carbamoyl]-6-oxo-3-[2-[(1s,4s)-4-[[1-(2,6-dioxopiperidin-3-yl)-3-methyl-2-oxo-1,3-benzodiazol-5-yl]methyl]cyclohexyl]acetyl]-octahydropyrrolo[1,2-a][1,5]diazocin-5-yl]carbamoyl]-1H-indole-5-carboxylic acid]
The DC50 of the first is lower: 10 to 100 nM for the first, > 1000 nM for the second.

First: Cc1ncsc1-c1ccc(C2(NC(=O)[C@@H]3C[C@@H](O)CN3C(=O)[C@@H](NC(=O)CCCc3cccc(OC[C@H](CCC(N)=O)NC(=O)[C@@H]4Cc5cccc6c5N4C(=O)[C@@H](NC(=O)c4cc5cc(C(=O)P(=O)(O)O)ccc5[nH]4)CC6)c3Cl)C(C)(C)C)CC2)cc1 [I-71]
Second: CC(=O)N1CC[C@H]2CC[C@@H](C(=O)N[C@@H](CCC(N)=O)COc3cc(F)cc(CCCC(=O)N[C@H](C(=O)N4C[C@H](O)C[C@H]4C(=O)N[C@@H](C)c4ccc(-c5scnc5C)cc4)C(C)(C)C)c3Cl)N2C(=O)[C@@H](NC(=O)c2cc3cc(C(=O)P(=O)(O)O)ccc3[nH]2)C1 [I-77]
The DC50 of the first is higher: 10 to 100 nM for the first, < 10 nM for the second.

`Cn1c(=O)n(C2CCC(=O)NC2=O)c2ccc(CCCCCCC(=O)N3CC[C@H]4CC[C@@H](C(=O)N[C@@H](CCC(N)=O)C(=O)NCc5ccc(S(C)(=O)=O)cc5)N4C(=O)[C@@H](NC(=O)c4cc5cc(C(=O)P(=O)(O)O)ccc5[nH]4)C3)cc21` (stereo partly shown) [I-76] and `Cn1c(=O)n(C2CCC(=O)NC2=O)c2ccc(CCCCCCc3cc4c5c(c3)C[C@@H](C(=O)N[C@@H](CCC(N)=O)C(=O)NCc3ccc(S(C)(=O)=O)cc3)N5C(=O)[C@@H](NC(=O)c3cc5cc(C(=O)P(=O)(O)O)ccc5[nH]3)CC4)cc21` (stereo partly drawn) [I-81, (2-(((3S,6S)-6-(((S)-5-amino-1l-((4-(methylsulfonyl)benzyl)amino)-1,5-dioxopentan-2-yl)carbamoyl)-9-(6-(1-(2,6-dioxopiperidin-3-yl)-3-methyl-2-oxo-2,3-dihydro-1H-benzo[d]imidazol-5-yl)hexyl)-4-oxo-1,2,3,4,6,7-hexahydroazepino[3,2,1-hi]indol-3-yl)carbamoyl)-1H-indole-5-carbonyl)phosphonic acid] fall in the same range of DC50: 10 to 100 nM for the first, 10 to 100 nM for the second.

`CC(=O)N1CC[C@H]2CC[C@@H](C(=O)N[C@@H](CCC(N)=O)COc3cc(C)cc(CCCC(=O)N[C@H](C(=O)N4C[C@H](O)C[C@H]4C(=O)N[C@@H](C)c4ccc(-c5scnc5C)cc4)C(C)(C)C)c3F)N2C(=O)[C@@H](NC(=O)c2cc3cc(C(=O)P(=O)(O)O)ccc3[nH]2)C1` [I-78] and `CC(=O)N1CC[C@H]2CC[C@@H](C(=O)N[C@@H](CCC(N)=O)COc3cc(F)cc(CCCC(=O)N[C@H](C(=O)N4C[C@H](O)C[C@H]4C(=O)N[C@@H](C)c4ccc(-c5scnc5C)cc4)C(C)(C)C)c3F)N2C(=O)[C@@H](NC(=O)c2cc3cc(C(=O)P(=O)(O)O)ccc3[nH]2)C1` [I-79] cannot be ordered by DC50: < 10 nM for the first, < 10 nM for the second.

Going from `CC(=O)N1CC[C@H]2CC[C@@H](C(=O)N[C@@H](CCC(N)=O)COc3cc(C)cc(CCCC(=O)N[C@H](C(=O)N4C[C@H](O)C[C@H]4C(=O)N[C@@H](C)c4ccc(-c5scnc5C)cc4)C(C)(C)C)c3Cl)N2C(=O)[C@@H](NC(=O)c2cc3cc(C(=O)P(=O)(O)O)ccc3[nH]2)C1` [I-80] to `COC(=O)N1CC[C@H]2CC[C@@H](C(=O)N[C@@H](CCC(N)=O)COc3cccc(CCCC(=O)N[C@H](C(=O)N4C[C@H](O)C[C@H]4C(=O)N[C@@H](C)c4ccc(-c5scnc5C)cc4)C(C)(C)C)c3Cl)N2C(=O)[C@@H](NC(=O)c2cc3cc(C(F)(F)P(=O)(O)O)ccc3[nH]2)C1` [I-84], the DC50 rises from < 10 nM to > 1000 nM.

`CC(C)c1ccc(CNC(=O)[C@H](CCC(=O)O)NC(=O)[C@@H]2CC[C@@H]3CCN(C(=O)[C@H]4CC[C@@H](CCc5ccc6c(c5)n(C)c(=O)n6C5CCC(=O)NC5=O)CC4)C[C@H](NC(=O)c4cc5cc(C(=O)P(=O)(O)O)ccc5[nH]4)C(=O)N32)cc1` (stereo partly drawn) [I-96, (4S)-4-[[(5S,8S,10aR)-6-oxo-5-[5-(phosphonocarbonyl)-1H-indole-2-amido]-3-[(1s,4s)-4-[2-[1-(2,6-dioxopiperidin-3-yl)-3-methyl-2-oxo-1,3-benzodiazol-5-yl]ethyl]cyclohexanecarbonyl]-octahydropyrrolo[1,2-a][1,5]diazocin-8-yl]formamido]-4-[[(4-isopropylphenyl)methyl]carbamoyl]butanoic acid] and `CC(C)c1ccc(CNC(=O)[C@H](CCC(N)=O)NC(=O)[C@@H]2CC[C@@H]3CCN(C(=O)[C@H]4CC[C@@H](CCc5ccc6c(c5)n(C)c(=O)n6C5CCC(=O)NC5=O)CC4)C[C@H](NC(=O)c4cc5cc(C(F)(F)P(=O)(O)O)ccc5s4)C(=O)N32)cc1` (stereo partly shown) [I-97] cannot be ordered by DC50: > 1000 nM for the first, > 1000 nM for the second.

With `CNC(=O)N1CC[C@H]2CC[C@@H](C(=O)N[C@@H](CCC(N)=O)COc3cccc(CCCC(=O)N[C@H](C(=O)N4C[C@H](O)C[C@H]4C(=O)N[C@@H](C)c4ccc(-c5scnc5C)cc4)C(C)(C)C)c3Cl)N2C(=O)[C@@H](NC(=O)c2cc3cc(C(F)(F)P(=O)(O)O)ccc3s2)C1` [I-98] the DC50 was > 1000 nM.

Same assay, conditions: read-out: STAT3 HiBIT A549 degradation 24 h: Average external-Abs DC50, 24 h compound incubation

`CC(=O)N1CC[C@H]2CC[C@@H](C(=O)N[C@@H](CCC(N)=O)COc3cccc(CCCC(=O)N[C@H](C(=O)N4C[C@H](O)C[C@H]4C(=O)N[C@@H](C)c4ccc(-c5scnc5C)cc4)C(C)(C)C)c3Cl)N2C(=O)[C@@H](NC(=O)c2cc3cc(C(F)(F)P(=O)(O)O)ccc3s2)C1` [I-83] and `Cc1ncsc1-c1ccc([C@H](C)NC(=O)[C@@H]2C[C@@H](O)CN2C(=O)[C@@H](NC(=O)CCCc2cccc(OC[C@H](CCC(N)=O)NC(=O)[C@@H]3CC[C@@H]4CCCC[C@H](NC(=O)c5cc6cc(C(F)(F)P(=O)(O)O)ccc6s5)C(=O)N43)c2Cl)C(C)(C)C)cc1` [I-89] cannot be ordered by DC50: > 1000 nM for the first, > 1000 nM for the second.

`COC(=O)N1CC[C@H]2CC[C@@H](C(=O)N[C@@H](CCC(N)=O)COc3cccc(CCCC(=O)N[C@H](C(=O)N4C[C@H](O)C[C@H]4C(=O)N[C@@H](C)c4ccc(-c5scnc5C)cc4)C(C)(C)C)c3Cl)N2C(=O)[C@@H](NC(=O)c2cc3cc(C(=O)P(=O)(O)O)ccc3s2)C1` [I-86] and `Cc1ncsc1-c1ccc([C@H](C)NC(=O)[C@@H]2C[C@@H](O)CN2C(=O)[C@@H](NC(=O)CCCc2cccc(OC[C@H](CCC(N)=O)NC(=O)[C@@H]3CC[C@@H]4CCCC[C@H](NC(=O)c5cc6cc(C(=O)P(=O)(O)O)ccc6s5)C(=O)N43)c2Cl)C(C)(C)C)cc1` [I-88] cannot be ordered by DC50: > 1000 nM for the first, > 1000 nM for the second.

Reference: patent US20240016942A1, “STAT DEGRADERS AND USES THEREOF” (Kymera Therapeutics, Inc., priority 2020, published 2024)
